Assay results taken from PMC4154495 (Molecular cancer therapeutics, 2014).

Target: T1, ETV1 (ETS variant 1) (Homo sapiens, UniProt P50549)
T1 sequence (P50549 1-477): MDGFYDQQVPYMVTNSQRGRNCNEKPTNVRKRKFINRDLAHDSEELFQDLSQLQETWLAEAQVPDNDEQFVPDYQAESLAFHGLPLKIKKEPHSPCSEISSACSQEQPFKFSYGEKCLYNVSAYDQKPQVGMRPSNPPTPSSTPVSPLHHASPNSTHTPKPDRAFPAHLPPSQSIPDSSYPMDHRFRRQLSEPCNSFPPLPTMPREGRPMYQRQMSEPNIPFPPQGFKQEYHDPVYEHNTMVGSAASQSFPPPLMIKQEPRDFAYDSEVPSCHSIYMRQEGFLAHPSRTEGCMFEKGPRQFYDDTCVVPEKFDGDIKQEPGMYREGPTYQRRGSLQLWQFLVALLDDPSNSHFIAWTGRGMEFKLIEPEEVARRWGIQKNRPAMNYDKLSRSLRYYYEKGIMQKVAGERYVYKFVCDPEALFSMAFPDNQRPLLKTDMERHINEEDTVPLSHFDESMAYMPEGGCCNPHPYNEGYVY
Assay: SPR
Assay type: binding

Kd: 17.1 µM
SMILES: COc1ccc(Nc2nc(N)nc(CN3CCCCC3)n2)cc1 [compound 1, BRD32048]
